Counter-ions that a name gives are not always drawn.
The compounds below were run against T1, acyl-CoA: cholesterol acyltransferase (ACAT) (Oryctolagus cuniculus, UniProt G1SFD9) (assay: In vitro inhibition of cholesterol esterification by ACAT (cholesteryl oleate formation), rabbit intestinal microsomal fraction). Conditions: endogenous cholesterol of rabbit intestinal microsomal fraction and exogenous 14C-oleoyl-CoA; read-out: IC50 (concentration of test compound required to inhibit cholesteryl oleate formation to 50% of control).
T1 construct: rabbit intestinal microsomal fraction; from tissue; host or cells: rabbit intestinal microsomal fraction
T1 sequence (G1SFD9 1-524): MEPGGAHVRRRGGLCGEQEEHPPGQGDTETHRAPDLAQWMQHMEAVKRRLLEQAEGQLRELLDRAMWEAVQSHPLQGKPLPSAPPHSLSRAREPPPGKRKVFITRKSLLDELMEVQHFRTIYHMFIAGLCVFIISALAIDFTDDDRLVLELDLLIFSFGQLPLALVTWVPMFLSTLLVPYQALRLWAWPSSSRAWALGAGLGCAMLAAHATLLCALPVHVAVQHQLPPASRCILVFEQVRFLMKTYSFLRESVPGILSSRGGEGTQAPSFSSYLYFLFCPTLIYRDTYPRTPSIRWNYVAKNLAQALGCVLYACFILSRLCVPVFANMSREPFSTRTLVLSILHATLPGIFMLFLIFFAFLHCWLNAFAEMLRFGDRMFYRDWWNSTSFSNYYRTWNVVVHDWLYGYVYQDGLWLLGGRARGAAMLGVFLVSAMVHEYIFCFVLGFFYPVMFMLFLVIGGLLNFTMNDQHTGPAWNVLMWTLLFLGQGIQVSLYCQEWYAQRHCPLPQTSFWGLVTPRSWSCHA
Assay type: biochemical
Protocol: The compounds of the present invention were tested for their ability to inhibit the esterification of cholesterol by the enzyme acyl-CoA: cholesterol acyltransferase (ACAT). The data in the table below is expressed as IC50 values, i.e. the concentration of test compound required to inhibit cholesteryl oleate formation to 50% of control.
The in vitro test employed is more fully described in Field, F. J. and Salome, R. G., Biochemica et Biophysica Acta, 712, pp. 557-570 (1982). The assay evaluates the ability of a test compound to inhibit the esterification of cholesterol using endogenous cholesterol of a rabbit intestinal microsomal fraction and exogenous ^14 C-oleoyl-CoA as reactants.

| IC50 [µM] | Structure (SMILES) |
| --- | --- |
| 24 | Cc1ccc(C)c(OCCCC(C)(C)C(=O)Nc2cccc(C3=NC(C)(C)CO3)c2C)c1 [Example 1, N-[3-(4,5-Dihydro-4,4-dimethyl-2-oxazolyl)-2-methylphenyl]-5-(2,5-dimethylphenoxy)-2,2-dimethylpentanamide] |
| 22 | Cc1ccc(C)c(OCCCC(C)(C)C(=O)Nc2cccc(C3=NC(C)(C)CO3)c2)c1 [Example 1a, N-[3-(4,5-Dihydro-4,4-dimethyl-2-oxazolyl)phenyl]-5-(2,5-dimethylphenoxy)-2,2-dimethylpentanamide] |
| 5.5 | Cc1ccc(C)c(OCCCC(C)(C)C(=O)Nc2cc(C3=NC(C)(C)CO3)ccc2C)c1 [Example 1b, N-[5-(4,5-Dihydro-4,4-dimethyl-2-oxazolyl)-2-methylphenyl]-5-(2,5-dimethylphenoxy)-2,2-dimethylpentanamide] |
| 10 | Cc1ccc(C)c(OCCCC(C)(C)C(=O)Nc2cccc(C3=NCCO3)c2C)c1 [Example 1c, N-[3-(4,5-Dihydro-2-oxazolyl)-2-methylphenyl]-5-(2,5-dimethylphenoxy)-2,2-dimethylpentanamide] |
| 1 | Cc1ccc(C)c(OCCCC(C)(C)C(=O)Nc2ccc(C)c(CC3=NC(C)(C)CO3)c2)c1 [Example 1d, N-[3-[(4,5-Dihydro-4,4-dimethyl-2-oxazolyl)methyl]-4-methylphenyl]-5-(2,5-dimethylphenoxy)-2,2-dimethylpentanamide] |
| 3.7 | COc1ccc(NC(=O)C(C)(C)CCCOc2cc(C)ccc2C)cc1CCC1=NC(C)(C)CO1 [Example 2, N-[3-[2-(4,5-Dihydro-4,4-dimethyl-2-oxazolyl)ethyl]-4-methoxyphenyl]-5-(2,5-dimethylphenoxy)-2,2-dimethylpentanamide] |
| 9.4 | Cc1ccc(C)c(OCCCC(C)(C)C(=O)Nc2cccc(C=CC3=NC(C)(C)CO3)c2)c1 [Example 2a, N-[3-[2-(4,5-Dihydro-4,4-dimethyl-2-oxazolyl)ethenyl]phenyl]-5-(2,5-dimethylphenoxy)-2,2-dimethylpentanamide] |
| 8 | COc1ccc(/C=C/C2=NC(C)(C)CO2)cc1NC(=O)C(C)(C)CCCOc1cc(C)ccc1C [Example 2b, (E)-N-[5-[2-(4,5-Dihydro-4,4-dimethyl-2-oxazolyl)ethenyl]-2-methoxyphenyl]-5-(2,5-dimethylphenoxy)-2,2-dimethylpentanamide] |
| 5.5 | COc1ccc(CC2=NC(C)(C)CO2)cc1NC(=O)C(C)(C)CCCOc1cc(C)ccc1C [Example 3, N-[5-[(4,5-Dihydro-4,4-dimethyl-2-oxazolyl)methyl]-2-methoxyphenyl]-5-(2,5-dimethylphenoxy)-2,2-dimethylpentanamide] |
| 9.2 | Cc1ccc(C)c(OCCCC(C)(C)C(=O)Nc2cccc(OCC3=NC(C)(C)CO3)c2)c1 [Example 3a, N-[3-[(4,5-Dihydro-4,4-dimethyl-2-oxazolyl)methoxy]phenyl]-5-(2,5-dimethylphenoxy)-2,2-dimethylpentanamide] |
| 0.8 | Cc1ccc(C)c(OCCCC(C)(C)C(=O)Nc2cc(CC3=NC(C)(C)CO3)ccc2C)c1 [Example 3b, N-[5-[(4,5-Dihydro-4,4-dimethyl-2-oxazolyl)methyl]-2-methylphenyl]-5-(2,5-dimethylphenoxy)-2,2-dimethylpentanamide] |
| 20 | Cc1ccc(C)c(OCCCC(C)(C)C(=O)Nc2cccc(C3=NCCCO3)c2)c1 [Example 4, N-[3-(5,6-Dihydro-4H-1,3-oxazin-2-yl)phenyl]-5-(2,5-dimethylphenoxy)-2,2-dimethylpentanamide] |
| 9 | COc1ccc(C2=NC(C)(C)CO2)cc1NC(=O)C(C)(C)CCCOc1cc(C)ccc1C [Example 4b, N-[5-(4,5-Dihydro-4,4-dimethyl-2-oxazolyl)-2-methoxyphenyl]-5-(2,5-dimethylphenoxy)-2,2-dimethylpentanamide] |
| 19 | COc1ccc(NC(=O)C(C)(C)CCCOc2cc(C)ccc2C)cc1C1=NC(C)(C)CO1 [Example 4d, N-[3-(4,5-Dihydro-4,4-dimethyl-2-oxazolyl)-4-methoxyphenyl]-5-(2,5-dimethylphenoxy)-2,2-dimethylpentanamide] |
| 9 | COc1cc(OC)c(C2=NC(C)(C)CO2)cc1NC(=O)C(C)(C)CCCOc1cc(C)ccc1C [Example 4e, N-[5-(4,5-Dihydro-4,4-dimethyl-2-oxazolyl)-2,4-dimethoxyphenyl]-5-(2,5-dimethylphenoxy)-2,2-dimethylpentanamide] |
| 18 | COc1ccc(C2=NCCCO2)cc1NC(=O)C(C)(C)CCCOc1cc(C)ccc1C [Example 4f, N-[5-(5,6-Dihydro-4H-1,3-oxazin-2-yl)-2-methoxyphenyl]-5-(2,5-dimethylphenoxy)-2,2-dimethylpentanamide] |
| 13 | COC(=N)c1cccc(NC(=O)C(C)(C)CCCOc2cc(C)ccc2C)c1 [Example 4g, 5-(2,5-Dimethylphenoxy)-N-[3-(iminomethoxymethyl)phenyl]-2,2-dimethylpentanamide monohydrochloride] |
| 23 | Cc1ccc(C)c(OCCCC(C)(C)C(=O)Nc2cccc(-c3ncco3)c2)c1 [Example 4h, 5-(2,5-Dimethylphenoxy)-2,2-dimethyl-N-[3-(2-oxazolyl)phenyl]-pentanamide] |
| 21 | Cc1ccc(C)c(OCCCC(C)(C)C(=O)Nc2cccc(-c3nnc(C)o3)c2)c1 [Example 5, 5-(2,5-dimethylphenoxy)-2,2-dimethyl-N-[3-(5-methyl-1,3,4-oxadiazol-2-yl)phenyl]pentanamide] |
